Data taken from US5801174A, “Fused indole and quinoxaline derivatives, their preparation and use” (Neurosearch A/S, priority 1994, dated 1998).

Columns and labels:
AMPA receptor = AMPA receptor binding affinity (in vitro); conditions: Table 1
Text: In Vitro activity (receptor affinity):
(§1) The test results obtained by testing the compounds of the invention for their in-vitro AMPA receptor affinity and their ability to inhibit GABA release are presented in the following table: […]

[1] = system: cultured cerebral cortex neurons; assay: 3H-GABA release, cultured cerebral cortex neurons; assay type: cell-based; conditions: Cerebral cortex neuron; inhibition of stimulated 3H-GABA release, mouse cortical neurons, Table 1
Text: The compounds of the invention have also been tested for their ability to inhibit GABA release from cultured cerebral cortex neurons in the following test:
^3 H-GABA Release, Cortical Neurons
Background: Neurons which express receptors for excitatory amino acids can be depolarized by such compounds and this depolarization will ultimately lead to a release of transmitter substance from the neurons. Cultured neurons obtained from 15-day-old mouse embryo cortex are mainly GABAergic and express all types of excitatory amino acid receptors. This means that they can be stimulated by high potassium or by the excitatory amino acids, NMDA, AMPA and kainate to release their neurotransmitter GABA.
^3 H-GABA may be used to label the GABA transmitter pool in the neurons and the release of ^3 H-GABA from the neurons may be used as a simple functional model for studies of the effects of excitatory amino acids and their antagonists.
Method: Cerebral cortices of 16-day-old mouse embryos are chopped in 0.4×0.4 mm cubes. The tissue is dissociated by mild trypsinization (0.1% (wt/vol) trypsin, 37° C., 15 min) and subsequently inoculated into poly-L-lysine-coated 3-cm Petri dishes containing a slightly modified DMEM (24.5 mM KCI, 30 mM glucose) supplemented with p-aminobenzoate (7 μM), insulin (100 mU/L) and 10% (vol/vol) horse serum. Cells are maintained in culture for 5-7 days with the addition of the antimitotic agent cytosine arbinoside (40 μM) from day 2 in vitro to prevent glial profileration. For further details and references, see Drejer et al. Exp. Brain Res. 47, 259 (1982).
Release experiments are performed using the model described by Drejer et al. Life Sci. 38, 2077 (1986). Cerebral cortex neurons cultured in Petri dishes (30 mm) are added 100 μM γ-vinyl-GABA one hour before the experiment in order to inhibit degradation of GABA in the neurons. 30 min before the experiment 5 μCi ^3 H-GABA is added to each culture and after this preloading period the cell monolayer at the bottom of the dish is covered with a piece of nylon mesh to protect the cells against mechanical damage and to facilitate dispersion of medium over the cell layer. The preloading medium is removed and the Petri dishes are placed in a superfusion system consisting of a peristaltic pump continously delivering thermostated 37° C. superfusion medium HEPES buffered saline (HBS): 10 mM HEPES, 135 mM NaCl, 5 mM KCI, 0.6 mM MgSO4, 1.0 mM CaCl2 and 6 mM D-glucose; pH 7.4) from a reservoir to the top of the slightly tilted Petri dish. The medium is continously collected from the lower part of the dish and delivered to a fraction collector. Initially, the cells are superfused with HBS for 15 min (flow rate 2 ml/min). Then the cells are stimulated for 30 sec every 4 min by changing the superfusion medium from HBS to a corresponding medium containing […].
Test subtances are dissolved in 50% DMSO, 48% ethanol. The final DMSO and ethanol concentration in the assay must not exceed 0.1%.
The stimulated release of ^3 H-GABA (cpm) are corrected for the mean basal release(cpm) before and after stimulation.
The stimulated release in the presence of antagonists are expressed relative to the stimulated release and the IC50 value for the antagonist is calculated (the concentration (μM) of the test substance which inhibit 50% of the stimulated ^3 H-GABA release).
as §1

CCN1Cc2c(-c3ccc(S(=O)(=O)N(C)C)cc3)cc3c(c2C1)NC(=O)C3=NO [7-ethyl-5-(4-(N,N-dimethylsulphamoyl)phenyl)-1,6,7,8-tetrahydrobenzo[1,2-b:3,4-c]dipyrrole-2,3-dione-3-oxime]
IC50 (AMPA receptor): 1600 nM
IC50 [1]: 4500 nM

CCN1Cc2c(-c3ccc(S(=O)(=O)N4CCOCC4)cc3)cc3c(c2C1)NC(=O)C3=NO [7-ethyl-5-(4-(morpholinosulfonyl)phenyl)-1,6,7,8-tetrahydrobenzo[1,2-b:3,4-c]dipyrrole-2,3-dione-3-oxime]
IC50 (AMPA receptor): 140 nM
IC50 [1]: 500 nM

CON=C1C(=O)Nc2c1cc(-c1ccc(S(=O)(=O)N3CCOCC3)cc1)c1c2CCN(C)C1 [7-methyl-5-(4-(morpholinosulfonyl)phenyl)-6,7,8,9-tetrahydro-1H-pyrrolo[2,3-f]isoquinoline-2,3-dione-3-O-methyloxime]
IC50 (AMPA receptor): 220 nM
IC50 [1]: 1600 nM

CN1CCc2c(c(-c3ccc(S(=O)(=O)N4CCOCC4)cc3)cc3c2NC(=O)C3=NO)C1 [7-methyl-5-(4-(morpholinosulfonyl)phenyl)-6,7,8,9-tetrahydro-1H-pyrrolo[2,3-f]isoquinoline-2,3-dione-3-oxime]
IC50 (AMPA receptor): 110 nM
IC50 [1]: 250 nM

CN1CCc2c(-c3ccc(S(=O)(=O)N4CCN(CCO)CC4)cc3)cc3c(c2C1)NC(=O)C3=NO [8-methyl-5-(4-(4-(2-hydroxyethyl)piperazinosulfonyl)-phenyl)-6,7,8,9-tetrahydro-1H-pyrrolo[3,2-h]-isoquinoline-2,3-dione-3-oxime]
IC50 (AMPA receptor): 19 nM
IC50 [1]: 100 nM

CN1CCc2c(-c3ccc(S(=O)(=O)N4CCN(Cc5ccc6c(c5)OCO6)CC4)cc3)cc3c(c2C1)NC(=O)C3=NO [8-methyl-5-(4-(4-(3,4-methylenedioxybenzyl)-piperazinosulfonyl)phenyl)-6,7,8,9-tetrahydro-1H-pyrrolo[3,2-h]-isoquinoline-2,3-dione-3-oxime]
IC50 (AMPA receptor): 130 nM
IC50 [1]: 500 nM

CN1CCc2c(-c3ccc(S(=O)(=O)N4CCN(c5ccc(Cl)cc5)CC4)cc3)cc3c(c2C1)NC(=O)C3=NO [8-methyl-5-(4-(4-(4-chlorophenyl)piperazinosulfonyl)-phenyl)-6,7,8,9-tetrahydro-1H-pyrrolo[3,2-h]-isoquinoline-2,3-dione-3-oxime]
IC50 (AMPA receptor): 68 nM
IC50 [1]: 877 nM

CN1CCc2c(-c3ccc(S(=O)(=O)N(CCO)CCO)cc3)cc3c(c2C1)NC(=O)C3=NO [8-methyl-5-(4-(N,N-bis(2-hydroxyethyl)sulphamoyl)-phenyl)-6,7,8,9-tetrahydro-1H-pyrrolo[3,2-h]-isoquinoline-2,3-dione-3-oxime]
IC50 (AMPA receptor): 50 nM
IC50 [1]: 130 nM

CCN(CC)CCN(CCN(CC)CC)S(=O)(=O)c1ccc(-c2cc3c(c4c2CCN(C)C4)NC(=O)C3=NO)cc1 [8-methyl-5-(4-(N,N-di(2-(N,N-diethylamino)ethyl)-sulphamoyl)-phenyl)-6,7,8,9-tetrahydro-1H-pyrrolo[3,2-h]-isoquinoline-2,3-dione-3-oxime]
IC50 (AMPA receptor): 38 nM
IC50 [1]: 450 nM

CN1CCc2c(-c3ccc(S(=O)(=O)N(Cc4ccccc4)Cc4ccccc4)cc3)cc3c(c2C1)NC(=O)C3=NO [8-methyl-5-(4-(N,N-dibenzylsulphamoyl)-phenyl)-6,7,8,9-tetrahydro-1H-pyrrolo[3,2-h]-isoquinoline-2,3-dione-3-oxime]
IC50 (AMPA receptor): 540 nM
IC50 [1]: 1900 nM

CCN(CC)S(=O)(=O)c1ccc(-c2cc3c(c4c2CCN(C)C4)NC(=O)C3=NO)cc1 [8-methyl-5-(4-(N,N-diethylsulphamoyl)-phenyl)-6,7,8,9-tetrahydro-1H-pyrrolo[3,2-h]-isoquinoline-2,3-dione-3-oxime]
IC50 (AMPA receptor): 18 nM
IC50 [1]: 160 nM

CN1CCc2c(-c3ccc(C(=O)N(C)C)cc3)cc3c(c2C1)NC(=O)C3=NO [8-methyl-5-(4-(N,N-dimethylcarbamoyl)-phenyl)-6,7,8,9-tetrahydro-1H-pyrrolo[3,2-h]-isoquinoline-2,3-dione-3-oxime]
IC50 (AMPA receptor): 140 nM
IC50 [1]: 190 nM

CON=C1C(=O)Nc2c1cc(-c1ccc(S(=O)(=O)N(C)C)cc1)c1c2CN(C)CC1 [8-methyl-5-(4-(N,N-dimethylsulphamoyl)-phenyl)-6,7,8,9-tetrahydro-1H-pyrrolo[3,2-h]-isoquinoline-2,3-dione-3-O-methyloxime]
IC50 (AMPA receptor): 200 nM
IC50 [1]: 1700 nM

CN1CCc2c(-c3ccc(S(=O)(=O)N(C)C)cc3)cc3c(c2C1)NC(=O)C3=NOC(C)(C)C [8-methyl-5-(4-(N,N-dimethylsulphamoyl)-phenyl)-6,7,8,9-tetrahydro-1H-pyrrolo[3,2-h]-isoquinoline-2,3-dione-3-O-t-butyloxime]
IC50 (AMPA receptor): 470 nM
IC50 [1]: 5500 nM

CN1CCc2c(-c3ccc(S(=O)(=O)NCCO)cc3)cc3c(c2C1)NC(=O)C3=NO [8-methyl-5-(4-(N-(2-hydroxyethyl)sulphamoyl)-phenyl)-6,7,8,9-tetrahydro-1H-pyrrolo[3,2-h]-isoquinoline-2,3-dione-3-oxime]
IC50 (AMPA receptor): 40 nM
IC50 [1]: 330 nM

CCOC(=O)CNS(=O)(=O)c1ccc(-c2cc3c(c4c2CCN(C)C4)NC(=O)C3=NO)cc1 [8-methyl-5-(4-(N-(ethoxycarbonylmethyl)-sulphamoyl)phenyl)-6,7,8,9-tetrahydro-1H-pyrrolo[3,2-h]isoquinoline-2,3-dione-3-oxime]
IC50 (AMPA receptor): 34 nM
IC50 [1]: 340 nM

CN(C)CCN(C)S(=O)(=O)c1ccc(-c2cc3c(c4c2CCN(C)C4)NC(=O)C3=NO)cc1 [8-methyl-5-(4-(N-methyl-N-(2-(N,N-dimethylamino)-ethyl)sulphamoyl)-phenyl)-6,7,8,9-tetrahydro-1H-pyrrolo[3,2-h]-isoquinoline-2,3-dione-3-oxime]
IC50 (AMPA receptor): 190 nM
IC50 [1]: 310 nM

CN1CCc2c(-c3ccc(S(=O)(=O)Nc4ccccc4)cc3)cc3c(c2C1)NC(=O)C3=NO [8-methyl-5-(4-(N-phenylsulphamoyl)-phenyl)-6,7,8,9-tetrahydro-1H-pyrrolo[3,2-h]-isoquinoline-2,3-dione-3-oxime]
IC50 (AMPA receptor): 66 nM
IC50 [1]: 380 nM

CN1CCc2c(-c3ccc(S(=O)(=O)NC(C)(C)C)cc3)cc3c(c2C1)NC(=O)C3=NO [8-methyl-5-(4-(N-t-butylsulphamoyl)-phenyl)-6,7,8,9-tetrahydro-1H-pyrrolo[3,2-h]-isoquinoline-2,3-dione-3-oxime]
IC50 (AMPA receptor): 30 nM
IC50 [1]: 240 nM

CCOC(=O)c1ccc(-c2cc3c(c4c2CCN(C)C4)NC(=O)C3=NO)cc1 [8-methyl-5-(4-(ethoxycarbonyl)phenyl)-6,7,8,9 tetrahydro-1H-pyrrolo[3,2-h]-isoquinoline-2,3-dione-3-oxime]
IC50 (AMPA receptor): 100 nM
IC50 [1]: 3700 nM

CN1CCc2c(-c3ccc(S(=O)(=O)N4CCOCC4)cc3)cc3c(c2C1)NC(=O)C3=O [8-methyl-5-(4-(morpholinosulfonyl)-phenyl)-6,7,8,9-tetrahydro-1H-pyrrolo[3,2-h]-isoquinoline-2,3-dione]
IC50 (AMPA receptor): 820 nM
IC50 [1]: 2160 nM

CN1CCc2c(-c3ccc(S(=O)(=O)N4CCOCC4)cc3)cc3c(c2C1)NC(=O)C3=NO [8-methyl-5-(4-(morpholinosulfonyl)phenyl)-6,7,8,9-tetrahydro-1H-pyrrolo[3,2-h]-isoquinoline-2,3-dione-3-oxime]
IC50 (AMPA receptor): 40 nM
IC50 [1]: 30 nM

CN1CCc2c(-c3ccc(S(=O)(=O)N4CCCCC4)cc3)cc3c(c2C1)NC(=O)C3=NO [8-methyl-5-(4-(piperidinosulfonyl)-phenyl)-6,7,8,9-tetrahydro-1H-pyrrolo[3,2-h]-isoquinoline-2,3-dione-3-oxime]
IC50 (AMPA receptor): 27 nM
IC50 [1]: 240 nM
